From patent publication US20090042849A1, “Phosphorylation of 5-lipoxygenase at ser523 and uses thereof” (priority 2006, published 2009)
“Also recorded” adds a separate entry of the source.

Columns and labels:
[1] = system: 5LO (Ser523 phosphorylated 5LO); test: immunoblotting of total 5LO and P-5LO in rat myocardium (whole cell homogenate); type: in vivo
Procedure: (§1) Rats received: 1) PIO (10 mg/kg/d); 2) ATV (10 mg/kg/d); 3) PIO (10 mg/kg/d)+H89 (20 mg/kg); 4) ATV (10 mg/kg/d)+H89 (20 mg/kg); 5) H89 (20 mg/kg) or 6) water alone (control). PIO and ATV were suspended in water and administered by gastric gavage once daily for 3 days; H-89 was dissolved in DMSO (final concentration 5% v/v) and injected intraperitoneally on the third day. Rats in groups 5 and 6 received water by gastric gavage once daily for 3 days. Rats in groups 1, 2 and 6 received intraperitoneal inkection of DMSO 5%. Sixteen hours after the injection, rats were euthanized and the hearts explanted for further analyses. In another experiment, rats received 3-day pretreatment with: 1) water (sham); 2) PIO (10 mg/kg/d); 3) ATV (10 mg/kg/d); 4) PIO (10 mg/kg/d)+ATV (10 mg/kg/d); or 5) LPS (10 mg/kg).
PIO and ATV were administered by oral gavage once daily as above; LPS was administered intravenously. In addition, rats in groups 1-4 received intravenous saline on the […], whereas rats in group 1 and 5 received water by gastric gavage once daily for 3 days and the LPS injection on the third day. Sixteen hours after the injection, rats were euthanized and the hearts explanted for further analyses.
The hearts were rapidly explanted, rinsed in cold PBS (pH 7.4), containing 0.16 mg/ml heparin to remove red blood cells and clots, frozen in liquid nitrogen and stored at −70° C. Myocardial samples from the anterior left ventricular wall were homogenized in RIPA lysis buffer (Santa Cruz Biotechnology, Santa Cruz, Calif.) and centrifuged at 14,000 rpm for 15 min at 4° C. The supernatant was collected and the total protein concentration was determined using the Lowry protein assay. […] The protein samples with loading buffer were run in 4-20% Tri-HCl Ready Gel at a 100V for 2 h until the desired molecular weight bands were separated. After electrophoresis, the gel was equilibrated in transfer buffer (25 mM Tris, 193 mM glycine, 0.1% SDS and 10% methanol) and the proteins were transferred to nitrocellulose membrane. The protein signals were quantified by an image-scanning-densitometer and the strength of each protein signal was normalized to the corresponding b-actin stain signal. Data are expressed as a ratio between the protein and the corresponding b-actin signal density.

5LO = test: immunoblotting of 5LO in cytosolic, membranous and nuclear fractions of myocardial cells; type: in vivo; settings: rat myocardium
Procedure: Rats received: 1) […] (20 mg/kg) or 6) water alone (control). PIO and ATV were suspended in water and administered by gastric gavage once daily for 3 days; H-89 was dissolved in DMSO (final concentration 5% v/v) and injected intraperitoneally on the third day. Rats in groups 5 and 6 received water by gastric gavage once daily for 3 days. Rats in groups 1, 2 and 6 received intraperitoneal inkection of DMSO 5%. Sixteen hours after the injection, rats were euthanized and the hearts explanted for further analyses. In another experiment, rats received 3-day pretreatment with: 1) […]); or 5) LPS (10 mg/kg). Myocardial samples (0.25 g) were homogenized, mixed with Buffer A Mix [Hepes (pH 7.9) 10 mM, KCl 10 mM, EDTA 10 mM, DTT 100 mM, protease inhibitor cocktail, and IGEPAL 10%, (Sigma, St Lois, Mo.)], homogenized again and incubated for 15 min on ice, and centrifuged at 850×g for 10 min at 4° C. The supernatant was discharged, Buffer A Mix was added again and the samples incubated for an additional 15 min on ice, and centrifuged at 15,000×g for 3 min at 40 C. The supernatant contains the cytosolic fraction was collected. The pellet was resuspended in 150 μl of Buffer B Mix [Hepes (pH 7.9) 20 mM, NaCl 0.4M, EDTA 1 mM, glycerol 10%, protease inhibitor cocktail, and IGEPAL 10%], the tubes were shaked on ice at 200 rpm for 2 h, centrifuged at 15,000×g for 5 min at 4° C., and supernatants were collected as the nuclear fraction. […] The hearts were rapidly explanted, rinsed in cold PBS (pH 7.4), containing 0.16 mg/ml heparin to remove red blood cells and clots, frozen in liquid nitrogen and stored at -70° C. Myocardial samples from the anterior left ventricular wall were homogenized in RIPA lysis buffer (Santa Cruz Biotechnology, Santa Cruz, Calif.) and centrifuged at 14,000 rpm for 15 min at 4° C. The supernatant was collected and the total protein concentration was determined using the Lowry protein assay. […] The protein samples with loading buffer were run in 4-20% Tri-HCl Ready Gel at a 100V for 2 h until the desired molecular weight bands were separated. After electrophoresis, the gel was equilibrated in transfer buffer (25 mM Tris, 193 mM glycine, 0.1% SDS and 10% methanol) and the proteins were transferred to nitrocellulose membrane. The protein signals were quantified by an image-scanning-densitometer and the strength of each protein signal was normalized to the corresponding b-actin stain signal. Data are expressed as a ratio between the protein and the corresponding b-actin signal density.

[2] = system: 5LO interaction with COX2 / cPLA2; test: co-immunoprecipitation of 5LO with COX2 and cPLA2 in rat hearts; type: in vivo
Procedure: as §1
For co-immunoprecipitation, myocardial cytosolic, membranous and nuclear fractions (500 μg) were incubated with anti-5LO antibodies for 4 h followed by overnight incubation at 4° C. with Protein-A-Agarose. The agarose beads were collected by centrifugation and SDS/PAGE Western immunoblotting was performed with the supernatant fraction. The anti-5LO precipitates were subjected to immunoblotting with anti-COX2 or anti-cPLA2 antibodies.

5LO mRNA = test: rtPCR of 5LO mRNA in adult rat cardiomyocytes; type: cell-based
Procedure: Cardiac myocytes were isolated from adult Sprague-Dawley rats (250-300 g, male). Animals were heparinized (1,000-2,000 units i.p.) 5 min before being anesthetized with ketamine (100 mg/kg) and xylazine (10 mg/kg), and the hearts were removed and placed in ice-cold heart media solution (in mmol/l: 112 NaCl, 5.4 KCl, 1 MgCl2, 9 NaH2PO4, and 11.1 D-glucose; supplemented with 10 HEPES, 30 taurine, 2 DL-carnitine, and 2 creatine, pH. 7.4). The hearts were perfused retrogradely in a Langendorff apparatus with Ca^2+-free heart media for 5 min at 5 ml/min at 37° C., followed by perfusion with Ca^2+-free heart media containing collagenase II, 210 U/mg (Worthington, Lakewood, N.J.) for 20 min. After perfusion, both ventricles were removed from the heart and minced in collagenase II-containing heart media for 10-15 min. The cell solution was then washed several times to remove collagenase II and reexposed to 1.2 mM Ca2^+ over 25 min to produce Ca2^+-tolerant cardiac myocytes. Myocytes were then plated in 4% FBS on laminin (2 μg/cm^2)-coated plates for 1 h and incubated at 37° C. in 5% CO2 for 12-24 h before experiments (21). Cells were incubated with 1) vehicle (0.07% ethanol); 2) PIO (10 μM)+ATV (10 μM); 3) H-89 (0.1 μM); or 4) PIO+ATV+H-89 for 12 hours. The supernatants were collected directly for LTB4 analyses by ELISA and the cells were harvested for immunoblotting. In addition, cells were plated in 8-chamber slides, received the same treatment as above and were used for immunohistochemical staining.
Equal amounts of total cellular RNA were reverse-transcribed with oligo(dT) primer by use of AMV Reverse Transcriptase (Applied Biosystems). Transcribed cDNAs (40 ng) were used for Real Time PCR with specific primers: rat ALOX5. […] The Ct (threshold cycle) is defined as the number of cycles required for the fluorescence signal to exceed the detection threshold. Expression of the ALOX5 relative to the GAPDH was calculated as the different between the threshold values of these two genes. […]

rat infarct model = test: rat infarct model, infarct size; type: in vivo; settings: ATV 2 mg/kg/d, cilostazol 20 mg/kg/d, alone or combined
Procedure: The effects of cilostazol (Pletal) and atorvastatin on myocardial protection was measured in a rat infarct model. Pletal is a phosphodiesterase III inhibitor, thus increasing intracellular cAMP levels. cAMP activates PKA. ATV at 2 mg/kg/d had no effect. Cilostazol 20 mg/kg/d reduced infarct size. However, when combined with ATV 2 mg/kg/d the effect was much greater. There are 8 rats in the control and ATV 2 mg/kg/d groups and 6 rats in the cilostazol and the combination groups. Infarct size in the ATV 2 mg/kg/d (30.48±1.46%) is not different from the controls (33.97±2.76%).

[3] = system: neonatal rat cardiomyocytes; settings: neonatal rat cardiomyocytes cultures; cited from earlier work
[4] = whole cell homogenate, PIO or ATV 10 mg/kg/d 3 days, H-89 20 mg/kg i.p.

CCc1ccc(CCOc2ccc(CC3SC(=O)NC3=O)cc2)nc1 (centres unmarked) [PIO, 5-[[4-[2-(5-ethylpyridin-2 yl)ethoxy]phenyl]methyl]thiazolidine-2,4-dione]
5LO phosphorylation, PIO and ATV compared with LPS ([1]; PIO, ATV 10 mg/kg/d, LPS 10 mg/kg i.v.): significantly greater increase | myocardial levels of Ser523 phosphorylated 5LO (P-5LO) [1, 4]: augment; also recorded: increased | myocardial total 5LO levels [1, 4]: without detectable change; also recorded: did not affect | 5LO levels in the cytosolic fraction (5LO): small, yet significant increase | 5LO levels in the membranous fraction (5LO): no detectable effect | fraction in which the co-immunoprecipitation with 5LO occurred ([2]; cytosolic and membranous fractions): in the cytosolic, but not the membranous fraction; also recorded: only in the cytosolic fraction | co-immunoprecipitation of COX2 or cPLA2 with 5LO ([2]; whole cell lysate): 5LO precipitated with COX2 and COX2, but not cPLA2, precipitated with 5LO | 5LO mRNA levels in the cardiomyocytes (5LO mRNA): did not affect

O=C1CCc2cc(OCCCCc3nnnn3C3CCCCC3)ccc2N1 [cilostazol]
Infarct size (rat infarct model): 15.47±1.61% | effect on infarct size (in words) (rat infarct model): reduced

CC(C)c1ccc2c(c1)c(SC(C)(C)C)c(CC(C)(C)C(=O)O)n2Cc1ccc(Cl)cc1 [MK886]
calcium ionophore (A23187) induction of reactive oxygen species [3]: prevented
